Read-outs that look alike come from different tables or passages of the source.
What was measured:
SARS-CoV-2 [1] = test: microbe, parasite or virus in culture; type: cell-based; conditions: Severe acute respiratory syndrome coronavirus 2, Calu-3, 24 h, Calu-3 cells, MOI 0.5, 24 h
M^pro = M^pro (Severe acute respiratory syndrome coronavirus 2, UniProt P0DTD1); type: biochemical; conditions: FRET assay, 0.1 to 50 μM
[2] = read-out: Approx. Cmax (maximum serum concentration); rat, oral; cited from earlier work
[3] = Cytotoxicity (CC50) in Vero cells; conditions: African green monkey
[4] = Cytotoxicity (CC50) in Calu-3 cells; conditions: human
SARS-CoV-2 [5] = test: microbe, parasite or virus in culture; conditions: Severe acute respiratory syndrome coronavirus 2, Vero, 24 h, read-out: SARS-CoV-2 IC50 in Vero cells
RdRp = tested on: RdRp; set-up: method as in ref 29 (a number printed in a supplementary file, which may have a reference list of its own: not looked up in the article's list); conditions: PDB 1T05; read-out: Binding affinity to RdRp (IC50); cited from earlier work

## Cc1cc(O)c2c(c1)C(=O)c1cc(O)cc(O)c1C2=O [Emodin]
SARS-CoV-2 [1]
  IC50: 27.9 µM
M^pro
  inhibitory activity against M^pro: showed inhibitory activities
[2]
  Cmax: ~78 nM
[3]
  CC50 at 24 h: > 50 µM
[4]
  CC50 at 24 h: > 50 µM
SARS-CoV-2 [5]
  IC50: 31.4 µM

## C[C@H](Cn1cnc2c(N)ncnc21)OCP(=O)(O)O [TNV (tenofovir)]
RdRp
  IC50: 1.3 µM
